According to ChEMBL document CHEMBL3580625, “The synthesis and functional evaluation of a mitochondria-targeted hydrogen sulfide donor, (10-oxo-10-(4-(3-thioxo-3H-1,2-dithiol-5-yl)phenoxy)decyl)triphenylphosphonium bromide (AP39)” (Medchemcomm, 2014):
Active and inactive are the calls of the source. The rule behind the calls is not given here.

What was measured:
[1] = system: hCMEC/D3; assay: (§1) Cytoprotective activity in human CMEC/D3 cells assessed as inhibition of 4-HNE-induced oxidative stress-mediated toxicity by measuring cell viability at 100 nM preincubated for 1 hr followed by 4-HNE induction measured after 24 hrs by Alamar blue assay in presence of 5-(4-hydroxyphenyl)-3H-1,2-dithiole-3-thione; assay type: functional, cell-based
[2] = system: hCMEC/D3; assay: as §1, with “SIN-1-induced” for “4-HNE-induced”, “SIN-1” for “4-HNE”; assay type: functional, cell-based
[3] = system: hCMEC/D3; assay: Cytoprotective activity in human CMEC/D3 cells assessed as inhibition of SIN-1-induced oxidative stress-mediated toxicity by measuring cell viability at 100 nM preincubated for 1 hr followed by SIN-1 induction measured after 24 hrs by Alamar blue assay; assay type: functional, cell-based
[4] = system: hCMEC/D3; assay: (§2) Cytoprotective activity in human CMEC/D3 cells assessed as inhibition of H2O2-induced oxidative stress-mediated toxicity by measuring cell viability at 100 nM preincubated for 1 hr followed by H2O2 induction measured after 24 hrs by Alamar blue assay; assay type: functional, cell-based
[5] = system: hCMEC/D3; assay: as §2, with “assay in presence of 5-(4-hydroxyphenyl)-3H-1,2-dithiole-3-thione” for “assay”; assay type: functional, cell-based
[6] = system: hCMEC/D3; assay: Cytoprotective activity in human CMEC/D3 cells assessed as inhibition of 4-HNE-induced oxidative stress-mediated toxicity by measuring cell viability at 100 nM preincubated for 1 hr followed by 4-HNE induction measured after 24 hrs by Alamar blue assay; assay type: functional, cell-based
[7] = species on record: Mus musculus; assay: Induction of H2S production in mitochondria of mouse bEND.3 cells at 100 nM after 1 hr by MitoTracker Red fluorescent probe-based inverted microscopic analysis; assay type: functional
[8] = Cytotoxicity against human CMEC/D3 cells assessed as effect on mitochondrial oxidant production at 100 nM by MitoSox Red probe-based fluorescence assay; assay type: cell-based; settings: hcmec/d3, 0.1 µM
[9] = Cytotoxicity against human CMEC/D3 cells assessed as effect on mitochondrial membrane potential at 100 nM by TMRM fluorescent probe-based fluorimetric analysis; assay type: cell-based; settings: hcmec/d3, 0.1 µM
[10] = system: hCMEC/D3; assay: Cytoprotective activity in human CMEC/D3 cells assessed as inhibition of 4-HNE-induced oxidative stress-mediated loss of mitochondrial membrane potential at 100 nM preincubated for 1 hr followed by 4-HNE induction measured after 24 hrs by TMRM fluorescent probe-based fluorimetric analysis; assay type: functional, cell-based
[11] = Cytotoxicity against human CMEC/D3 cells up to 5 uM after 24 hrs by Alamar blue assay relative to vehicle-treated control; assay type: cell-based; settings: hcmec/d3, 24 h
[12] = system: hCMEC/D3; assay: Cytoprotective activity in human CMEC/D3 cells assessed as inhibition of SIN-1-induced mitochondrial production of reactive oxygen species at 100 nM preincubated for 1 hr followed by SIN-1 induction measured after 24 hrs by MitoSox Red probe-based fluorescence assay; assay type: functional, cell-based
[13] = system: hCMEC/D3; assay: Induction of H2S production in human CMEC/D3 cells after 1 hr by WSP-1 probe-based fluorescence assay; assay type: functional, cell-based
[14] = species on record: Mus musculus; assay: Induction of H2S production in mouse bEND.3 cells at 100 nM after 1 hr by AzMC fluorescent probe-based inverted microscopic analysis; assay type: functional, cell-based
[15] = system: hCMEC/D3; assay: Cytoprotective activity in human CMEC/D3 cells assessed as inhibition of SIN-1-induced oxidative stress-mediated loss of mitochondrial membrane potential at 100 nM preincubated for 1 hr followed by SIN-1 induction measured after 24 hrs by TMRM fluorescent probe-based fluorimetric analysis; assay type: functional, cell-based
[16] = system: hCMEC/D3; assay: Cytoprotective activity in human CMEC/D3 cells assessed as inhibition of H2O2-induced oxidative stress-mediated loss of mitochondrial membrane potential at 100 nM preincubated for 1 hr followed by H2O2 induction measured after 24 hrs by TMRM fluorescent probe-based fluorimetric analysis; assay type: functional, cell-based
[17] = system: hCMEC/D3; assay: Cytoprotective activity in human CMEC/D3 cells assessed as inhibition of 4-HNE-induced mitochondrial production of reactive oxygen species at 100 nM preincubated for 1 hr followed by 4-HNE induction measured after 24 hrs by MitoSox Red probe-based fluorescence assay; assay type: functional, cell-based
[18] = system: hCMEC/D3; assay: Cytoprotective activity in human CMEC/D3 cells assessed as inhibition of H2O2-induced mitochondrial production of reactive oxygen species at 100 nM preincubated for 1 hr followed by H2O2 induction measured after 24 hrs by MitoSox Red probe-based fluorescence assay; assay type: functional, cell-based
[19] = system: hCMEC/D3; assay: Cytoprotective activity in human CMEC/D3 cells assessed as inhibition of rotenone-mediated reduction of ATP level at 100 nM preincubated for 1 hr followed by rotenone induction measured after 18 hrs by firefly lantern luciferase reporter assay; assay type: functional, cell-based
[20] = system: hCMEC/D3; assay: Cytoprotective activity in human CMEC/D3 cells assessed as inhibition of rotenone-induced mitochondrial production of reactive oxygen species at 100 nM preincubated for 1 hr followed by rotenone induction by MitoSox Red probe-based fluorescence assay; assay type: functional, cell-based

| SMILES | inhibition [1] | inhibition [2] | inhibition [3] | inhibition [4] | inhibition [5] | inhibition [6] | Activity [7] | Activity [8] | Activity [9] | inhibition [10] | Activity [11] | inhibition [12] | Activity [13] | Activity [14] | inhibition [15] | inhibition [16] | inhibition [17] | inhibition [18] | inhibition [19] | inhibition [20] |
| --- | --- | --- | --- | --- | --- | --- | --- | --- | --- | --- | --- | --- | --- | --- | --- | --- | --- | --- | --- | --- |
| O=C(O)CCCCCCCCC[P+](c1ccccc1)(c1ccccc1)c1ccccc1 | inactive | inactive | inactive | inactive | inactive | inactive | – | – | – | – | – | – | – | – | – | – | – | – | – | – |
| O=C(CCCCCCCCC[P+](c1ccccc1)(c1ccccc1)c1ccccc1)Oc1ccc(-c2cc(=S)ss2)cc1.[Br-] | – | – | – | – | – | – | Active | Non-toxic | Non-toxic | Active | Non-toxic | Active | Dose-dependent effect | Active | Active | Active | Active | Active | Active | Active |
| Oc1ccc(-c2cc(=S)ss2)cc1 | – | – | inactive | inactive | – | inactive | – | – | – | – | – | – | – | – | – | – | – | – | – | – |
